Patent US20150329483A1, “Methods and Pharmaceutical Compositions for the Treatment of X-Linked Charcot-Marie-Tooth” (INSERM (Institut National de la Santé et de la Recherche …, priority 2012, published 2015)

Key:
S3 cells = assay: Connexon activity of S3 cells treated with KN62 and KN93 derivatives; type: cell-based, mouse; conditions: for Connexon activity at 0.1 μM / Connexon activity at 1 μM / Connexon activity at 10 μM / Connexon activity at 50 μM: 24 hours of treatment
Protocol: Animal cells and wild-type mouse cells transgenic animals S3 created in the as described in EXAMPLE 13 are cultured in 96-well microplates. We have shown that the S3 cells have an abnormality of the connexon activity due to the mutation of connexin 32 introduced in this line. […] The cells were incubated with new molecules and connexon activity was evaluated. […] Regarding KN93 derivatives most substitutions suppress the activity “correction activity connexon” molecules, excepting for a few molecules.
S3 cells were treated with various molecules, at increasing concentrations. Moreover transgenic animals of the same lineage cells and untreated transgenic animals are used as controls. The connexon activity was assessed after 24 hours of treatment. The activity is expressed in thousands of arbitrary fluorescence units. […] As a comparison we use the reference molecule KN 93 at a concentration of 10 μM.

S3 fibroblasts [1] = assay: Nuclear volume evaluation (DAPI, ImageJ) in cultured fibroblasts; type: cell-based, mouse; conditions: for Nuclear Volume: S3 fibroblasts cultured 24 hrs with CamKII inhibitor, WT 8607, untreated S3 15029; for Effect on nuclear (cellular) volume, in words: S3 fibroblasts treated with inhibitor
Protocol: (§1) For the isolation of fibroblasts a small fragment of mouse ear was removed, dipped in alcohol solution, cut into small pieces in a sterile Petri dish in the presence of PBS containing fungicide (fonigizon) diluted 1/250, and transferred to 2-ml tubes containing 1 ml dissociation buffer (DMEM plus 20% FBS, 1 mg/ml BSA, 0.5 mg/ml collagenase, 0.25 mg/ml trypsin and penicillin/streptomycin). The tubes were incubated in a water bath with agitation for 1 h at 37° C. Fibroblast medium (DMEM, 10% FBS, 2 mM Gln, 100 U/ml penicillin, 100 μg/ml streptomycin) was added to each tube and the samples were centrifuged at 400 g for 10 min. The cells were re-suspended in fibroblast medium, seeded into Petri dishes and placed in an incubator at 37° C., 5% CO2. The culture medium was replaced every two days. When the cultures reached sub-confluence, the cells were trypsinized and expanded into tissue culture flasks. All experiments were performed using cells between passage numbers four and eight.
Nuclei were stained with DAPI and nuclear volume was evaluated with ImageJ software.
Nuclear volume correction. Fibroblasts from Wild type (WT) and S3 transgenic mouse have been cultured for 24 hrs with or without CamKII inhibitors (KN62 and KN93). Nuclear volume has been evaluated using the Imagej software. […] This experiment has been repeated three time.

S3 fibroblasts [2] = assay: Centrosome number per cell (γ-tubulin labelling); type: cell-based, mouse; conditions: for >centro (percentage of cells with more than two centrosomes) / 2 centro (percentage of cells with two centrosomes) / 1 centro (percentage of cells with one centrosome): S3 fibroblasts cultured with inhibitor; for >centro (percentage of cells with more than two centrosomes): WT 3, untreated S3 18; for 2 centro (percentage of cells with two centrosomes): WT 18, untreated S3 22; for 1 centro (percentage of cells with one centrosome): WT 79%, untreated S3 60%; for Effect on centrosome number per cell, in words: S3 fibroblasts treated with inhibitor
Protocol: as §1
Cells were grown on glass coverslips for 24 h to allow cultures to reach 80% confluence. To measure the number of centrosomes, cells were fixed with 4% PFA, permeabilized with methanol at −20° C. for 8 min and blocked with 0.5% Triton X-100 in PBS for 30 min at RT. To detect g-tubulin, cells were incubated overnight at 4° C. with a mouse anti-g-tubulin antibody (GTU-88; Sigma) diluted 1/1000 in PBS containing 0.1% milk and 0.05% Triton X-100. After washing, the cells were incubated for 1 h at RT with Cy3-conjugated goat antimouse IgG secondary antibody (Caltag Laboratories) diluted 1/2000 in PBS containing 0.1% milk and 0.05% Triton X-100. The preparations were counterstained with DAPI in Vectashield mounting medium (Vector Laboratories). Fluorescent images were acquired with a microscope (Leica DMR) equipped with a PL APO objective.
Number of centrosomes per cell. Fibroblasts from WT and S3 have been cultured with or without CamKII inhibitors. Centrosome number per cell has been evaluated as described in methods. […] This experiment has been repeated three time.

CamKII = conditions: cited from earlier work
S3 fibroblasts [3] = assay: Connexon activity, lucifer yellow uptake, 96 well plate; type: cell-based, mouse
Protocol: FIG. 3. A. Connexon activity in fibroblasts from WT, S3 and S3 treated with KN93 was monitored in a 96 well plate assay, using lucifer yellow as a fluorescent dye (see methods). Fluorescence is in arbitrary units. B, C and D. Connexon activity of WT mouse fibroblasts (B), S3 transgenic mouse (C) and S3 incubated with KN93 (D), were incubated with LY for two hours and examined under a fluorescent microscope.
One hundred thousand cells were cultured as described above for one day with or without CamKII inhibitors (KN62 or KN93 at a final concentration of 10 μM). Lucifer yellow (LY) was added to the medium (final concentration: 110 mM) and incubated for two hours. Fluorescence was recorded using a Perkin Elmer Victor 4 microplaque reader (excitation: 405 nm, emission: 535 nm).
Fibroblasts from WT and S3 (treated or not with KN93) have been cultured for 2 days in 96 wells microplaques. Lucifer yellow has been then added to the medium and fluorescence monitored after 2 hours (cell auto fluorescence and fluorescence of LY without cells, have been evaluated and substracted). This experiment has been repeated three time.

[4] = system: G2 transgenic line (mutated human Cx32 G12S); assay: Rotarod locomotor test, G2 transgenic line; type: in vivo, mouse
Protocol: FIG. 4. Mice from the G2 line were treated either with a placebo (4 animals) or with soluble KN93 (4 animals, 1.5 mg/kg, i.p., 1 administration per day) for one month and performances on the rotarod evaluated. Treatment was then stopped and locomotor performances evaluated one month later.
(§2) Transgenic animals received intraperitoneal injections, either with a placebo (0.9% physiological serum) or with KN 93 (1.5 mg/kg). Treatment took place every day for one month.
(§3) Locomotor ability was tested using the rotarod procedure, requiring motor coordination and balance control. A machine manufactured by Bioseb was used for this purpose. A previously used procedure (Norreel et al., 2001) was adapted and two velocities (15 and 25) were used. Briefly, each mouse underwent the same 5-day procedure. The first two days were used to train the animals (five sessions of 2-min walking at a very low speed, i.e. five rotations per minute (r.p.m.)). The last three days were used to run the test sessions. Each day, the mice performed two series of five trials, a training speed with a 1-h rest period between the two series and a 5-min rest period between two consecutive trials. The software provided by Bioseb (Sedacom v1) was used to monitor the time the animals were on the rod.
(§4) Mouse from the G2 transgenic line have been treated either with a placebo (4 animals) or with soluble KN93 (4 animals). Locomotor performances of the animals have been evaluated using the rotarod test after one month of treatment. Performances of WT and G2 treated with KN93, are not statistically different. On the contrary performances of G2 animals treated either with a placebo or with KN93 are highly statistically significant (p value<0.0001). Treatment has been stopped for one month and rotarod performances evaluated. Rotarod performances of KN 93 treated or placebo treated degrade and are not statically different.

[5] = system: S3 transgenic line (mutated human Cx32 S26L); assay: Rotarod locomotor test, S3 transgenic line; type: in vivo, mouse
Protocol: as §2, §3
as §4, with “Mouse (4)” for “Mouse”, “S3” for “G2”, “placebo” for “placebo (4 animals)”, “KN93.” for “KN93 (4 animals).”, “statistically” for “statically”

Structure (SMILES) | Connexon activity at 0.1 μM (S3 cells) | Connexon activity at 1 μM (S3 cells) | Connexon activity at 10 μM (S3 cells) | Connexon activity at 50 μM (S3 cells) | >centro (percentage of cells with more than two centrosomes) (S3 fibroblasts [2]) | 2 centro (percentage of cells with two centrosomes) (S3 fibroblasts [2]) | 1 centro (percentage of cells with one centrosome) (S3 fibroblasts [2]) | Effect on centrosome number per cell, in words (S3 fibroblasts [2]) | also measured
COc1ccc(S(=O)(=O)N(CCO)c2ccccc2CN(C)C/C=C/c2ccccc2)cc1 [CM08-16, 2-hydroxy-S-(4-methoxyphenyl)-N′-[2-({methyl[(2E)-3-phenylprop-2-en-1-yl]amino}methyl)phenyl]ethane-1-sulfonamido] | 131 thousands of arbitrary fluorescence units | 142 thousands of arbitrary fluorescence units | 159 thousands of arbitrary fluorescence units | 160 thousands of arbitrary fluorescence units |  |  |  |  | 
COc1ccc(S(=O)(=O)N(CCO)c2ccccc2CN(C)Cc2ccc3ccccc3c2)cc1 [CM08-18, 2-hydroxy-S-(4-methoxyphenyl)-N′-(2-{[methyl(naphthalen-2-ylmethyl)amino]methyl}phenyl)ethane-1-sulfonamido] | 125 thousands of arbitrary fluorescence units | 150 thousands of arbitrary fluorescence units | 162 thousands of arbitrary fluorescence units | 174 thousands of arbitrary fluorescence units |  |  |  |  | 
COc1ccc(S(=O)(=O)N(CCO)c2ccccc2CN(C)Cc2ccccc2)cc1 [CM08-33, N-(2-{[benzyl(methyl)amino]methyl}phenyl)-2-hydroxy-S′-(4-methoxyphenyl)ethane-1-sulfonamido] | 162 thousands of arbitrary fluorescence units | 196 thousands of arbitrary fluorescence units | 189 thousands of arbitrary fluorescence units | 180 thousands of arbitrary fluorescence units |  |  |  |  | 
COc1ccc(S(=O)(=O)N(CCO)c2ccccc2CN(C)CCCc2ccc(Cl)cc2)cc1 [CM08-40, N-[2-({[3-(4-chlorophenyl)propyl](methyl)amino}methyl)phenyl]-2-hydroxy-S′-(4-methoxyphenyl)ethane-1-sulfonamido] | 169 thousands of arbitrary fluorescence units | 169 thousands of arbitrary fluorescence units | 167 thousands of arbitrary fluorescence units | 162 thousands of arbitrary fluorescence units |  |  |  |  | 
CN([C@@H](Cc1ccc(OS(=O)(=O)c2cccc3cnccc23)cc1)C(=O)N1CCN(c2ccccc2)CC1)S(=O)(=O)c1cccc2cnccc12 [KN62, 1-[N,Obis(5-isoquinolinesulfonyl)-N-methyl-L-tyrosyl]-4-phenylpiperazine] |  |  |  |  | 6% | 32% | 62% | returns to close to normal | Nuclear Volume (S3 fibroblasts [1]): 10100; Effect on nuclear (cellular) volume, in words (S3 fibroblasts [1]): restitution of normal cellular volume
COc1ccc(S(=O)(=O)Nc2ccccc2CN(C)C/C=C/c2ccc(Cl)cc2)cc1 [KN92] |  |  |  |  | 20% | 20% | 60% | unchanged | CamKII inhibitory activity, in words (CamKII): no CamKII inhibitory activity
COc1ccc(S(=O)(=O)N(CCO)c2ccccc2CN(C)C/C=C/c2ccc(Cl)cc2)cc1 [KN93] |  |  |  |  | 7% | 20% | 73% | returns to close to normal | Nuclear Volume (S3 fibroblasts [1]): 11000; Effect on nuclear (cellular) volume, in words (S3 fibroblasts [1]): restitution of normal cellular volume; Effect on connexon activity, in words (S3 fibroblasts [3]; S3 cells treated with KN93): significantly improved though not totally restored; LY intensity (S3 fibroblasts [3]; S3 fibroblasts, KN93 10 μM, fluorescence 2 hours after lucifer yellow, WT 63, untreated S3 17): 28 +/− 9 arbitrary units; Effect on progression of locomotor phenotype, in words ([4]; G2 animals, soluble form 1.5 mg/kg i.p. per day): significantly lowers the progression of the phenotype; Locomotor activity after treatment stopped, in words ([4]; G2 animals, treatment stopped after one month): rapid degradation of the locomotor activity ensued; Mean Minutes on rotarod, W4 treated ([4]; G2 line, 1.5 mg/kg i.p. per day for one month, T0 3.90, W4 placebo 3.20): 3.6 min; Mean Minutes on rotarod, W4 treated + 1 month arrest ([4]; G2 line, one month after stopping treatment, placebo + arrest 2.84): 2.9 min; Degradation of locomotor capacities, in words ([5]; S3 animals, soluble form 1.5 mg/kg i.p. per day): lowered; Locomotion after stopping the treatment, in words ([5]; S3 animals, treatment stopped): strong degradation of locomotion; Mean Minutes on rotarod, W4 treated ([5]; S3 line, 1.5 mg/kg i.p. per day for one month, T0 2.7, W4 placebo 2.1): 2.5 min; Mean Minutes on rotarod, W4 treated + 1 month arrest ([5]; S3 line, one month after stopping treatment, placebo + arrest 1.5): 1.41 min; Connexon activity, KN93 reference column (S3 cells; KN93 10 μM, 24 hours, WT 230, untreated S3 126-129): 191 thousands of arbitrary fluorescence units
